What was measured:
[1] = molecular target: T1, recombinant human GST-SYK (Homo sapiens, UniProt P43405); assay: Homogeneous Time-Resolved Fluorescence (HTRF) assay for the recombinant human Syk enzyme; format: biochemical; settings: HTRF assay, recombinant human GST-SYK; IC50 given as class symbols; read-out: rhSYK Activity
T1 construct: purchased Carna Biosciences 08-176
Summary of the method: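 Phosphotyrosine product from a biotinylated Syk substrate peptide was detected by HTRF (europium antibody/SA-APC, read after 30 min) following a 45-minute room-temperature reaction at 25 μM ATP, with […] preincubated 10 minutes with inhibitor.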

PGD2 = settings: dosed intranasally, phase I/II study, allergic rhinitis; cited from earlier work
[2] = phase II clinical trial, allergic rhinitis; cited from earlier work

| Structure (SMILES) | IC50 [1] | change in PGD2 (PGD2) | clinical safety (PGD2) | efficacy versus placebo [2] |
| --- | --- | --- | --- | --- |
| Cc1cc(Nc2nccc(C(F)(F)F)n2)cc(-c2ccc(/C=C(/F)C(=O)O)nc2)c1 [Example 24.4, (2E)-2-Fluoro-3-[5-(3-methyl-5-{[4-(trifluoromethyl)pyrimidin-2-yl]amino}phenyl)pyridin-2-yl]prop-2-enoic acid] | < 100 nM |  |  |  |
| Oc1cccc(Nc2ncc(F)c(Nc3cccc(O)c3)n2)c1 [Example R112] |  | statistically significant decrease | safe across a range of indicators | lack of efficacy |

Continued, in another order:

| IC50 [1] | Structure (SMILES) | change in PGD2 (PGD2) | clinical safety (PGD2) | efficacy versus placebo [2] |
| --- | --- | --- | --- | --- |
| 100 to 1000 nM | COC(=O)Cn1cc(-c2ccc(-c3cc(C)cc(Nc4nccc(C(F)(F)F)n4)c3)cn2)nn1 [Example 25.1, Methyl {4-[5-(3-methyl-5-{[4-(trifluoromethyl)pyrimidin-2-yl]amino}phenyl)pyridin-2-yl]-1H-1,2,3-triazol-1-yl}acetate] |  |  |  |
| < 100 nM | Cc1cc(Nc2nccc(C(F)(F)F)n2)cc(-c2ccc(-c3cn(CC(=O)O)nn3)nc2)c1 [Example 25.2, {4-[5-(3-Methyl-5-{[4-(trifluoromethyl)pyrimidin-2-yl]amino}phenyl)pyridin-2-yl]-1H-1,2,3-triazol-1-yl}acetic acid] |  |  |  |
| 100 to 1000 nM | CC(O)c1ccc(-c2cc(Nc3nccc(C(F)(F)F)n3)cc(C(=O)O)c2)cn1 (stereo not shown) [Example 26.1, 3-[6-(1-Hydroxyethyl)pyridin-3-yl]-5-{[4-(trifluoromethyl)pyrimidin-2-yl]amino}benzoic acid] |  |  |  |

From US9376418B2, “Substituted pyridine spleen tyrosine kinase (SYK) inhibitors” (Merck Sharp & Dohme Corp., priority 2012, dated 2016)
